The results in this text go back to BigSolDB 2.1.

What is called solubility (mole fraction) is the moles of solute divided by all moles in the saturated solution.

The conditions of the data set: in water.

Take `CC(C)(C)CC(C)(C)c1ccc(O)cc1`: the solubility (mole fraction) (298.1 K) was found to be 1.32e-06; the solubility (mole fraction) (303.1 K) stood at 1.55e-06; the solubility (mole fraction) (310.1 K) came out at 1.91e-06; the solubility (mole fraction) (318.1 K) came out at 2.52e-06; the solubility (mole fraction) (328.1 K) came to 3.83e-06.

For `CCCCCCCCc1ccc(O)cc1`, the solubility (mole fraction) is 2.9e-07 (298.1 K); 3.4e-07 (303.1 K); 4.7e-07 (310.1 K); 6.4e-07 (318.1 K); 8.4e-07 (328.1 K).

As to `CCCCCCCCCc1ccc(O)cc1`, the solubility (mole fraction) stood at 4e-08 (298.1 K); 5e-08 (303.1 K); 7e-08 (310.1 K); 1.4e-07 (318.1 K); 2e-07 (328.1 K).
